Results from patent publication US20120157388A1, “EXTERNAL COMPOSITION FOR SKIN” (Shiseido Company, Ltd., priority 2007, published 2012).

Test: Stability evaluation of lotion (appearance and smell after storage)
Type: physicochemical
Conditions: 50° C., one month
Procedure: For L-lysyl-β-alanine hydrochloride (Example 2), L-lysine (Comparative Example 6), and β-alanine (Comparative Example 7), the following external composition for skin was prepared, and the stability thereof was evaluated.
50 g each of Example 2, Comparative Example 6 and
Comparative Example 7 was placed in a 50 ml screw tube and capped. After storing them in a 50° C. incubator for one month, changes in appearance and smell were judged according to the following criteria.

stability in appearance (in words): excellently stable
stability in smell (in words): excellently stable
Compound: NCCCC[C@H](N)C(=O)NCCC(=O)O [L-lysyl-β-alanine]
